In the supplement of paper PMC10307832 one finds relative viability data, which are given here for seven cell lines.

What all share (experiment): relative viability (nuclei count vs DMSO), 5 days (fraction); higher = more cells survive
Compound in assay [1]: Cn1nnc2c(C(N)=O)ncn2c1=O [Temozolomide] + Cc1cc(Nc2cc(N3CCN(C)CC3)nc(Sc3ccc(NC(=O)C4CC4)cc3)n2)n[nH]1 [Tozasertib] (partner 0.1 µM)
In outline:
(§1)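 Each reported value is a median over duplicate plates. It expresses relative viability: treated-well nuclei count divided by vehicle-well nuclei count. Lung cancer cell lines in 1536-well plates were dosed by pin tool a day after seeding, alone with one drug or with a fixed anchor-drug dose plus five library-drug doses (not always all listed) in √10 steps, and nuclei were counted after 5 days.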

Compound in assay [2]: Cn1nnc2c(C(N)=O)ncn2c1=O [Temozolomide] + Cc1nc(NC(=O)N2CCC[C@H]2C(N)=O)sc1-c1ccnc(C(C)(C)C(F)(F)F)c1 [Alpelisib] (partner 2 µM)
In a few lines:
as §1

Compound in assay [3]: Cn1nnc2c(C(N)=O)ncn2c1=O [Temozolomide] + N=C(N)NC(=N)NCCc1ccccc1 [Phenformin] (partner 250 µM)
In a few lines:
as §1

Compound in assay [4]: Cn1nnc2c(C(N)=O)ncn2c1=O [Temozolomide] + CC(=O)c1c(C)c2cnc(Nc3ccc(N4CCNCC4)cn3)nc2n(C2CCCC2)c1=O [Palbociclib] (partner 0.5 µM)
In outline: as §1

On to NCI-H441, for which the relative viability in assay [1] (first compound 0.2 µM) came to 0.691; in assay [1] (first compound 0.6325 µM) it was 0.775; in assay [1] (first compound 2 µM) it was 0.785; in assay [1] (first compound 6.325 µM), 0.62; in assay [1] (first compound 20 µM), 0.611; in assay [2] (first compound 0.2 µM), 0.881. The relative viability came out at 0.804 in assay [2] (first compound 0.6325 µM); 0.901 in assay [2] (first compound 2 µM); 0.743 in assay [2] (first compound 6.325 µM); 0.566 in assay [2] (first compound 20 µM); 1.07 in assay [3] (first compound 0.2 µM); 0.892 in assay [3] (first compound 0.6325 µM). Also, the relative viability in assay [3] (first compound 2 µM) came to 0.93; in assay [3] (first compound 6.325 µM) it was 0.738; in assay [3] (first compound 20 µM) it was 0.944; in assay [4] (first compound 0.2 µM) it was 0.23; in assay [4] (first compound 0.6325 µM) it was 0.211; in assay [4] (first compound 2 µM), 0.211. The relative viability in assay [4] (first compound 6.325 µM) is 0.245; in assay [4] (first compound 20 µM) it was 0.226.

For NCI-H23, the relative viability turned out to be 0.4 in assay [1] (first compound 0.2 µM); 0.337 in assay [1] (first compound 0.6325 µM); 0.35 in assay [1] (first compound 2 µM); 0.381 in assay [1] (first compound 6.325 µM); 0.249 in assay [1] (first compound 20 µM); 0.645 in assay [2] (first compound 0.2 µM). The relative viability turned out to be 0.73 in assay [2] (first compound 0.6325 µM); 0.552 in assay [2] (first compound 2 µM); 0.764 in assay [2] (first compound 6.325 µM); 0.734 in assay [2] (first compound 20 µM); 0.868 in assay [3] (first compound 0.2 µM); 0.853 in assay [3] (first compound 0.6325 µM). The relative viability in assay [3] (first compound 2 µM) stood at 0.789; in assay [3] (first compound 6.325 µM), 0.784; in assay [3] (first compound 20 µM), 0.791; in assay [4] (first compound 0.2 µM), 0.59; in assay [4] (first compound 0.6325 µM), 0.55; in assay [4] (first compound 2 µM), 0.504. Further, the values for the relative viability in assay [4] (first compound 6.325 µM) and in assay [4] (first compound 20 µM) were 0.403 and 0.433, respectively.

On to HARA, for which the relative viability came out at 0.0933 in assay [1] (first compound 0.2 µM); 0.112 in assay [1] (first compound 0.6325 µM); 0.107 in assay [1] (first compound 2 µM); 0.11 in assay [1] (first compound 6.325 µM); 0.108 in assay [1] (first compound 20 µM); 0.72 in assay [2] (first compound 0.2 µM). For the same cell line, the relative viability in assay [2] (first compound 0.6325 µM) came to 0.945; in assay [2] (first compound 2 µM), 0.81; in assay [2] (first compound 6.325 µM), 0.773; in assay [2] (first compound 20 µM) it was 0.666; in assay [3] (first compound 0.2 µM), 0.446; in assay [3] (first compound 0.6325 µM) it was 0.493. Moreover, the relative viability in assay [3] (first compound 2 µM) is 0.401; in assay [3] (first compound 6.325 µM), 0.414; in assay [3] (first compound 20 µM), 0.394; in assay [4] (first compound 0.6325 µM), 0.307; in assay [4] (first compound 2 µM), 0.303; in assay [4] (first compound 6.325 µM), 0.302. Further, the relative viability in assay [4] (first compound 20 µM) is 0.233.

For the cell line ABC-1, the relative viability in assay [1] (first compound 0.2 µM) came to 0.158; in assay [1] (first compound 0.6325 µM), 0.138; in assay [1] (first compound 2 µM) it was 0.196; in assay [1] (first compound 6.325 µM) it was 0.164; in assay [1] (first compound 20 µM), 0.218; in assay [2] (first compound 0.2 µM) it was 1.19. In addition, the relative viability worked out at 1.17 in assay [2] (first compound 0.6325 µM); 1.15 in assay [2] (first compound 2 µM); 1.1 in assay [2] (first compound 6.325 µM); 0.829 in assay [2] (first compound 20 µM); 0.241 in assay [3] (first compound 0.2 µM); 0.232 in assay [3] (first compound 0.6325 µM). Besides, the relative viability in assay [3] (first compound 2 µM) came to 0.24; in assay [3] (first compound 6.325 µM) it was 0.213; in assay [3] (first compound 20 µM) it was 0.237; in assay [4] (first compound 0.2 µM), 0.639; in assay [4] (first compound 0.6325 µM), 0.777; in assay [4] (first compound 2 µM), 0.707. Moreover, the relative viability in assay [4] (first compound 6.325 µM) and in assay [4] (first compound 20 µM) was 0.65 each time.

For LOU-NH91, the relative viability in assay [1] (first compound 0.2 µM) was determined as 0.548; in assay [1] (first compound 0.6325 µM), 0.728; in assay [1] (first compound 2 µM) it was 0.687; in assay [1] (first compound 6.325 µM) it was 0.641; in assay [1] (first compound 20 µM) it was 0.482; in assay [2] (first compound 0.2 µM), 0.57. The relative viability in assay [2] (first compound 0.6325 µM) was determined as 0.726; in assay [2] (first compound 2 µM), 0.789; in assay [2] (first compound 6.325 µM), 0.702; in assay [2] (first compound 20 µM), 0.47; in assay [3] (first compound 0.2 µM) it was 0.612; in assay [3] (first compound 0.6325 µM) it was 0.74. Besides, the relative viability in assay [3] (first compound 2 µM) came to 0.711; in assay [3] (first compound 6.325 µM), 0.788; in assay [3] (first compound 20 µM), 0.476; in assay [4] (first compound 0.2 µM), 0.585; in assay [4] (first compound 0.6325 µM), 0.566; in assay [4] (first compound 2 µM) it was 0.552. Besides, the relative viability in assay [4] (first compound 6.325 µM) stood at 0.557; in assay [4] (first compound 20 µM), 0.572.

In the case of NCI-H2405, the relative viability in assay [1] (first compound 0.2 µM) was 0.716; in assay [1] (first compound 0.6325 µM), 0.722; in assay [1] (first compound 2 µM), 0.791; in assay [1] (first compound 6.325 µM), 0.72; in assay [1] (first compound 20 µM) it was 0.776; in assay [2] (first compound 0.2 µM), 0.405. Besides, the relative viability worked out at 0.819 in assay [2] (first compound 0.6325 µM); 0.891 in assay [2] (first compound 2 µM); 0.734 in assay [2] (first compound 6.325 µM); 0.738 in assay [2] (first compound 20 µM); 0.492 in assay [3] (first compound 0.2 µM); 0.395 in assay [3] (first compound 0.6325 µM). In addition, the relative viability was 0.42 in assay [3] (first compound 2 µM); 0.378 in assay [3] (first compound 6.325 µM); 0.431 in assay [3] (first compound 20 µM); 0.442 in assay [4] (first compound 0.2 µM); 0.576 in assay [4] (first compound 0.6325 µM); 0.518 in assay [4] (first compound 2 µM). The relative viability turned out to be 0.5 in assay [4] (first compound 6.325 µM) and 0.508 in assay [4] (first compound 20 µM).

PC-3 [JPC-3]: the relative viability stood at 0.935 in assay [1] (first compound 0.2 µM); 0.945 in assay [1] (first compound 0.6325 µM); 0.934 in assay [1] (first compound 2 µM); 0.901 in assay [1] (first compound 6.325 µM); 0.431 in assay [1] (first compound 20 µM); 1.09 in assay [2] (first compound 0.2 µM). For the same cell line, the relative viability in assay [2] (first compound 0.6325 µM) turned out to be 0.982; in assay [2] (first compound 2 µM), 0.979; in assay [2] (first compound 6.325 µM), 1.07; in assay [2] (first compound 20 µM), 0.396; in assay [3] (first compound 0.2 µM), 0.411; in assay [3] (first compound 0.6325 µM), 0.475. Further, the relative viability came out at 0.5 in assay [3] (first compound 2 µM); 0.469 in assay [3] (first compound 6.325 µM); 0.347 in assay [3] (first compound 20 µM); 0.541 in assay [4] (first compound 0.2 µM); 0.554 in assay [4] (first compound 0.6325 µM); 0.543 in assay [4] (first compound 2 µM). Further, the relative viability in assay [4] (first compound 6.325 µM) is 0.545; in assay [4] (first compound 20 µM), 0.433.
